What follows are compounds tested against T1, human TREK-1 (Homo sapiens, UniProt O95069) (assay: TREK-1 Thallium (Tl+) flux assay, Method 1). Conditions: TREK-1 Thallium (Tl+) flux assay, Method 1.
T1 construct: expressed in transfected cells
T1 sequence (O95069 1-426): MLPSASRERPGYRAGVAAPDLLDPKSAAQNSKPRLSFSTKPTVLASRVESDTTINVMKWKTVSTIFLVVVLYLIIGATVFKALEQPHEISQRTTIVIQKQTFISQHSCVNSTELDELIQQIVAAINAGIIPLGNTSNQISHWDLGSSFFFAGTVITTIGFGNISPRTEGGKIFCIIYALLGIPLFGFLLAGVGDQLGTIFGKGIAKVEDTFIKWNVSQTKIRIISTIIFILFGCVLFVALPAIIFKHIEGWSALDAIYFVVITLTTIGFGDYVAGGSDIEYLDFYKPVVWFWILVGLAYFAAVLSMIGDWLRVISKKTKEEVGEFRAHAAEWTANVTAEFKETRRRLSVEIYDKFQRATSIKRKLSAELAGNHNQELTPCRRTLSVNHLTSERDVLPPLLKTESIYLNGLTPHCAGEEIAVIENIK
Type: cell-based
Outline: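 Readout: Thallos fluorescence ratio, taken 25 s post-thallium relative to the pre-thallium baseline average, then converted to % inhibition. Cells were CHO-K1 stably expressing human TREK-1, dye-loaded and exposed to test compound (vehicle 0.3% DMSO) for 10 min prior to thallium stimulation.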

IC50 [nM] | Structure (SMILES)
3000 | Cc1cc(OCc2ccccc2)ccc1NC(=O)c1c(Cl)cnn1CC1CN(C(=O)C2COCCO2)CCO1 (stereo not drawn) [Compound 412, 1-((4-(1,4-dioxane-2-carbonyl)morpholin-2-yl)methyl)-N-(4-(benzyloxy)-2-methylphenyl)-4-chloro-1H-pyrazole-5-carboxamide]

Same assay, conditions: TREK-1 Thallium (Tl+) flux assay; no *^12 (Method 2) mark on these rows

IC50 [nM] | Structure (SMILES)
390 | CC(=O)N1CCCC(Cn2ncc(Cl)c2C(=O)Nc2ncc(C#Cc3ccc(F)cc3)cc2C)C1 (stereo not drawn) [Compound 248, 1-((1-acetylpiperidin-3-yl)methyl)-4-chloro-N-(5-((4-fluorophenyl)ethynyl)-3-methylpyridin-2-yl)-1H-pyrazole-5-carboxamide]
750 | Cc1cc(C#Cc2ccccc2)cnc1NC(=O)c1c(Cl)cnn1[C@@H]1CCOC1 [Compound 224, (R)-4-chloro-N-(3-methyl-5-(phenylethynyl)pyridin-2-yl)-1-(tetrahydrofuran-3-yl)-1H-pyrazole-5-carboxamide]
300 | CC(=O)N1C[C@H]2C[C@H](n3ncc(Cl)c3C(=O)Nc3ncc(C#Cc4cccc(F)c4)cc3C)C[C@H]2C1 [Compound 195, 1-[(3aR,5s,6aS)-2-acetyloctahydrocyclopenta[c]pyrrol-5-yl]-4-chloro-N-{5-[(3-fluorophenyl)ethynyl]-3-methylpyridin-2-yl}-1H-pyrazole-5-carboxamide]
600 | CC(C)(C)OC(=O)N1CC[C@H](n2ncc(Cl)c2C(=O)Nc2ncc(C#Cc3ccccc3)cc2F)C1 [Compound 315, tert-butyl (S)-3-(4-chloro-5-((3-fluoro-5-(phenylethynyl)pyridin-2-yl)carbamoyl)-1H-pyrazol-1-yl)pyrrolidine-1-carboxylate]
620 | O=C(Nc1ncc(C#Cc2ccccc2)cc1F)c1c(Cl)cnn1C[C@@H]1C[C@H]2CC[C@@H]1O2 (racemic) [Compound 319, 4-chloro-N-[3-fluoro-5-(phenylethynyl)pyridin-2-yl]-1-{[(1S,2S,4R)-7-oxabicyclo[2.2.1]heptan-2-yl]methyl}-1H-pyrazole-5-carboxamide and 4-chloro-N-[3-fluoro-5-{[(1R,2R,4S)-7-oxabicyclo[2.2.1]heptan-2-yl)methyl}-1H-pyrazole-5-carboxamide]
620 | Cc1cc(C#Cc2ccc(F)cc2)cnc1NC(=O)c1c(Cl)cnn1C[C@H]1CCCN(C(=O)C(C)C)C1 [Compound 320, (S)-4-chloro-N-(5-((4-fluorophenyl)ethynyl)-3-methylpyridin-2-yl)-1-((1-isobutyrylpiperidin-3-yl)methyl)-1H-pyrazole-5-carboxamide]
340 | CC(C)(C)OC(=O)N[C@@H]1CC[C@@H](n2ncc(Cl)c2C(=O)Nc2ncc(C#Cc3ccccc3)cc2F)C1 [Compound 221, tert-butyl ((1R,3R)-3-(4-chloro-5-((3-fluoro-5-(phenylethynyl)pyridin-2-yl)carbamoyl)-1H-pyrazol-1-yl)cyclopentyl)carbamate]
310 | O=C(Nc1ncc(C#Cc2cccs2)cc1F)c1c(Cl)cnn1CCC1CCN(C(=O)C2COCCO2)CC1 (stereo not drawn) [Compound 206, 1-(2-(1-(1,4-dioxane-2-carbonyl)piperidin-4-yl)ethyl)-4-chloro-N-(3-fluoro-5-(thiophen-2-ylethynyl)pyridin-2-yl)-1H-pyrazole-5-carboxamide]
590 | CC(=O)N1CCC2(CC(n3ncc(Cl)c3C(=O)Nc3ncc(C#Cc4ccc(F)cc4)cc3C)C2)C1 (stereo not drawn) [Compound 312, 1-(6-acetyl-6-azaspiro[3.4]octan-2-yl)-4-chloro-N-{5-[(4-fluorophenyl)ethynyl]-3-methylpyridin-2-yl}-1H-pyrazole-5-carboxamide]
850 | Cc1cc(C#Cc2cccs2)cnc1NC(=O)c1c(Cl)cnn1[C@H]1C[C@@H]2CN(C(=O)C(C)(C)C)C[C@@H]2C1 [Compound 354, 4-chloro-1-[(3aR,5s,6aS)-2-(2,2-dimethylpropanoyl)octahydrocyclopenta [c]pyrrol-5-yl]-N-{3-methyl-5-[(thiophen-2-yl)ethynyl]pyridin-2-yl}-1H-pyrazole-5-carboxamide]
760 | Cc1cc(C#Cc2cccs2)cnc1NC(=O)c1c(Cl)cnn1C[C@H]1COCCO1 [Compound 343, (S)-1-((1,4-dioxan-2-yl)methyl)-4-chloro-N-(3-methyl-5-(thiophen-2-ylethynyl)pyridin-2-yl)-1H-pyrazole-5-carboxamide]
5680 | CC(=O)N1CCC(n2ncc(Cl)c2C(=O)Nc2cnc(C#Cc3ccccc3)c(F)c2)CC1 [Compound 378, 1-(1-acetylpiperidin-4-yl)-4-chloro-N-(5-fluoro-6-(phenylethynyl)pyridin-3-yl)-1H-pyrazole-5-carboxamide]
310 | O=C(Nc1c(F)cc(C#Cc2ccccc2)cc1F)c1c(Cl)cnn1[C@H]1CCOC1 [Compound 199, (S)-4-chloro-N-(2,6-difluoro-4-(phenylethnyl)phenyl)-1-(tetrahydrofuran-3-yl)-1H-pyrazole-5-carboxamide]
490 | Cc1cc(C#Cc2ccccc2)cnc1NC(=O)c1c(Cl)cnn1CC1COCC1C (stereo not drawn) [Compound 281, 4-chloro-N-(3-methyl-5-(phenylethynyl)pyridin-2-yl)-1-((4-methyltetrahydrofuran-3-yl)methyl)-1H-pyrazole-5-carboxamide]

Structure (SMILES) | IC50 [nM]
CC(=O)N1CC2CC(C1)C2Cn1ncc(Cl)c1C(=O)Nc1ncc(C#Cc2ccccc2)cc1F (stereo not drawn) [Compound 326, 1-((3-acetyl-3-azabicyclo[3.1.1]heptan-6-yl)methyl)-4-chloro-N-(3-fluoro-5-(phenylethynyl)pyridin-2-yl)-1H-pyrazole-5-carboxamide] | 640

Same assay, conditions: TREK-1 Thallium (Tl+) flux assay; values without footnote *12 are Method 1

IC50 [nM] | Structure (SMILES)
270 | Cc1cc(C#Cc2ccccc2)cnc1NC(=O)c1c(Cl)cnn1CCCC#N [Compound 167, 4-chloro-1-(3-cyanopropyl)-N-(3-methyl-5-(phenylethynyl)pyridin-2-yl)-1H-pyrazole-5-carboxamide]
100 | CC(=O)N1CC[C@H](n2ncc(Cl)c2C(=O)Nc2ncc(C#Cc3ccccc3)cc2C)C[C@@H]1C (single isomer, unassigned) [Compound 31, 1-[(2S,4S)-1-acetyl-2-methylpiperidin-4-yl]-4-chloro-N-[3-methyl-5-(phenylethynyl)pyridin-2-yl]-1H-pyrazole-5-carboxamide or 1-[(2R,4R)-1-acetyl-2-methylpiperidin-4-yl]-4-chloro-N-[3-methyl-5-(phenylethynyl)pyridin-2-yl]-1H-pyrazole-5-carboxamide]
220 | CC(=O)N1CC[C@H](n2ncc(Cl)c2C(=O)Nc2ncc(C#Cc3ccccc3)cc2C)C1 [Compound 128, (S)-1-(1-acetylpyrrolidin-3-yl)-4-chloro-N-(3-methyl-5-(phenylethynyl)pyridin-2-yl)-1H-pyrazole-5-carboxamide]
160 | CCNC(=O)N1CCC(n2ncc(Cl)c2C(=O)Nc2ncc(C#Cc3cccs3)cc2C)CC1 [Compound 73, 4-(4-chloro-5-((3-methyl-5-(thiophen-2-ylethynyl)pyridin-2-yl)carbamoyl)-1H-pyrazol-1-yl)-N-ethylpiperidine-1-carboxamide]
150 | Cc1cc(C#Cc2ccc(F)cc2)cnc1NC(=O)c1c(Cl)cnn1C1CCN(C(=O)C2COCCO2)CC1 (stereo not drawn) [Compound 65, 1-(1-(1,4-dioxane-2-carbonyl)piperidin-4-yl)-4-chloro-N-(5-((4-fluorophenyl)ethynyl)-3-methylpyridin-2-yl)-1H-pyrazole-5-carboxamide]
200 | Cc1cc(C#Cc2ccccc2)cnc1NC(=O)c1c(Cl)cnn1C[C@@H]1CCN(C(=O)C(C)C)C[C@@H]1F [Compound 118, 4-chloro-1-(((3R,4S)-3-fluoro-1-isobutyrylpiperidin-4-yl)methyl)-N-(3-methyl-5-(phenylethynyl)pyridin-2-yl)-1H-pyrazole-5-carboxamide]
240 | CC(=O)N[C@H]1C[C@H](n2ncc(Cl)c2C(=O)Nc2ncc(C#Cc3ccccc3)cc2C)C1 [Compound 156, 1-(trans-3-acetamidocyclobutyl)-4-chloro-N-(3-methyl-5-(phenylethynyl)pyridin-2-yl)-1H-pyrazole-5-carboxamide]
60 | CC(=O)N1CCC(n2ncc(Cl)c2C(=O)Nc2ncc(C#Cc3cccs3)cc2C)CC1 [Compound 19, 1-(1-acetylpiperidin-4-yl)-4-chloro-N-(3-methyl-5-(thiophen-2-ylethynyl)pyridin-2-yl)-1H-pyrazole-5-carboxamide]
250 | CC(=O)N1CCC(n2ncc(Cl)c2C(=O)Nc2ncc(C#Cc3ccccc3F)cc2C)C(F)C1 (stereo in doubt) [Compound 159, 1-((3R,4R)-1-acetyl-3-fluoropiperidin-4-yl)-4-chloro-N-(5-((2-fluorophenyl)ethynyl)-3-methylpyridin-2-yl)-1H-pyrazole-5-carboxamide]
240 | Cc1cc(C#Cc2ccccc2)cnc1NC(=O)c1c(Cl)cnn1C[C@H]1CCOC1 [Compound 147, (R)-4-chloro-N-(3-methyl-5-(phenylethynyl)pyridin-2-yl)-1-((tetrahydrofuran-3-yl)methyl)-1H-pyrazole-5-carboxamide]
160 | Cc1cc(C#Cc2ccccc2)cnc1NC(=O)c1c(Cl)cnn1C1CCN(C(=O)C2COCCO2)C1 (stereo not drawn) [Compound 80, 1-(1-(1,4-dioxane-2-carbonyl)pyrrolidin-3-yl)-4-chloro-N-(3-methyl-5-(phenylethynyl)pyridin-2-yl)-1H-pyrazole-5-carboxamide]
